Laboratory results published in PMC11440508, “Dually Labeled Neurotensin NTS1R Ligands for Probing Radiochemical and Fluorescence-Based Binding Assays” (Journal of Medicinal Chemistry, 2024).

Biological target: NTS1R (Homo sapiens, UniProt P30989)
Assay: Flow cytometric (FC) association and dissociation kinetics, suspended CHO-hNTS1R cells
Assay type: binding
Conditions: FC (suspension); for koff: 23 °C, read-out: koff [min^–1] (converted); for kon: calculated from kobs, koff and ligand concentration, read-out: kon [min^–1 nM^–1] (converted)
Method: Flow cytometry-based NTS1R binding studies were performed with intact CHO-hNTS1R (all kind of experiments) and HT-29 cells (only saturation binding) using a BD FACSCanto II (Becton Dickinson, Heidelberg, Germany), equipped with an argon laser (488 nm) and a red diode laser (640 nm), and a BD High Throughput Sampler (HTS unit) for microtiter plates. Saturation and competition binding experiments were performed in triplicate in 96-well polypropylene plates (Brand 701330, Wertheim, Germany) using the HTS unit for sample injection. Association and dissociation experiments were performed in duplicate in 5 mL polypropylene tubes (VWR, Radnor) using the standard injection port of the flow cytometer. The following gain settings for forward and sideward scatter were applied: FSC, 0 V; SSC, 252 V. Fluorescence was recorded using the PE-channel (excitation: 488 nm, emission: 585 ± 21) nm with a PMT gain of 330–400 V. For measurements using the HTS unit, 45 μL of the sample were injected with a speed of 1.5 μL/s. For measurements, requiring the use of the standard injection port, the medium flow rate ([…]) was used. Measurements were stopped after 30 s (HTS unit) or after counting of 500–3000 gated events (standard injection port).
Cells were seeded in T75 culture flasks 3–4 days (CHO-hNTS1R cells) or 5–6 days (HT-29 cells) prior to the experiment. On the day of the experiment, cells were detached by trypsinization, suspended in DPBS1 and centrifuged at 200g at rt for 5 min. […]
5 mL polypropylene tubes were prefilled with 2000 μL of cell suspension and DMSO/H2O 2:8 v/v (20 μL) were added (determination of total binding). […] Specific binding data, obtained by subtracting triplicate mean values of unspecific binding from triplicate mean values of total binding, were plotted against the time and analyzed by a three-parameter equation describing an exponential rise to a maximum (one-phase association, Y0 constrained to zero, GraphPad Prism 5) to yield the observed association rate constant kobs. […]
5 mL polypropylene tubes were prefilled with 2000 μL of cell suspension. […] After different periods of time (1–240 min), sample aliquots were measured by placing the tube in the injection port of the flow cytometer. Specific binding data, obtained by subtracting triplicate mean values of unspecific binding from triplicate mean values of total binding, were plotted against the time and analyzed by a three-parameter equation describing an incomplete monophasic exponential decline (one phase decay, GraphPad Prism 5) to obtain koff values. […]
The kon and Kd(kin) values were calculated as described for high-content imaging binding experiments.

Chain of NTS1R (P30989 whole entry): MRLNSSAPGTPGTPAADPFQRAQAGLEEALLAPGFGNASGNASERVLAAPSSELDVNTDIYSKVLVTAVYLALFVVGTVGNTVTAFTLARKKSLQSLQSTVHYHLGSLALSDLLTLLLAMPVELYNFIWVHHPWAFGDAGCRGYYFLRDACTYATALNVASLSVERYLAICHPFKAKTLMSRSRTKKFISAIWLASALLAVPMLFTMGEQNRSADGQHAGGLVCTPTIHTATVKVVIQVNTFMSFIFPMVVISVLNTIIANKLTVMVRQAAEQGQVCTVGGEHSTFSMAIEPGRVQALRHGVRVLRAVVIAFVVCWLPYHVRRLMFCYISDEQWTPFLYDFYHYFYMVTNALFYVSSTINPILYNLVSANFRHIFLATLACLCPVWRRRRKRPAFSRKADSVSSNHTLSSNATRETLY

Row | SMILES | koff | kon
1 | CCC(=O)NCCCCNC(=O)NC(=N)NCCC[C@H](NC(=O)[C@@H]1CCCN1C(=O)[C@@H](NC(=O)CCc1cn(CCCNC(=O)CCC#Cc2ccc3c(c2)C(C)(C)C2=C4C=C5C6=[N+](CCC5OC4CCN23)c2ccc(S(=O)(=O)[O-])cc2C6(C)C)nn1)C1CCNCC1)C(=O)N[C@@H](CCCNC(=N)N)C(=O)N1CCC[C@H]1C(=O)N[C@H](C(=O)N[C@H](C(=O)N[C@@H](CC(C)C)C(=O)O)[C@@H](C)CC)C(C)(C)c1ccc(O)cc1 (stereo partly drawn) [Compound 18, N^α-(3-(N-(1-(8-Sulfonato-5,5,27,27-tetramethyl-16-oxa-20-aza-12-azoniaheptacyclo[15.11.0.03,15.04,12.06,11.020,28.021,26]octacosa-1(28),2,4(12),6(11),7,9,21(26),22,24-nonaen-24-yl)-5-oxopentyn-5-yl)-1-aminoprop-3-yl-1H-1,2,3-triazol-4-yl)propanoyl)-2-(piperidin-4-yl)-Gly-Pro-N^ω-[(4-(N-propanoyl)aminobutyl)aminocarbonyl]Arg-Arg-Pro-β,β-dimethyl-L-Tyr-Ile-Leu Tris(hydrotrifluoroacetate)] | 0.0004 s⁻¹ | 2.67e+06 M⁻¹ s⁻¹
2 | CCC(=O)NCCCCNC(=O)N=C(N)NCCC[C@H](NC(=O)[C@@H]1CCCN1C(=O)[C@@H](NC(=O)CCc1cn(CCCNC(=O)c2ccc(-c3c4ccc(=[N+](C)C)cc-4oc4cc(N(C)C)ccc34)c(C(=O)[O-])c2)nn1)C1CCNCC1)C(=O)N[C@@H](CCCNC(=N)N)C(=O)N1CCC[C@H]1C(=O)N[C@@H](Cc1ccc(O)cc1)C(=O)N[C@H](C(=O)N[C@@H](CC(C)C)C(=O)O)[C@@H](C)CC [Compound 13, N^α-(3-(1-N-((1-Carboxylato-2-(6-(dimethylamino)-3-(dimethyliminio)-3H-xanthen-9-yl)phen-5-yl)1-oxomethyl)aminoprop-3-yl-1H-1,2,3-triazol-4-yl)propanoyl)-2-(piperidin-4-yl)-Gly-Pro-N^ω-[(4-(N-propanoyl)aminobutyl)aminocarbonyl]Arg-Arg-Pro-Tyr-Ile-Leu Tris(hydrotrifluoroacetate)] | 0.000333 s⁻¹ | 8e+06 M⁻¹ s⁻¹
